Results as given in patent US11878975B2, “Substituted indole compounds useful as TLR inhibitors” (BRISTOL-MYERS SQUIBB COMPANY, priority 2017, dated 2024).

Columns and labels:
Format in all cases: cell-based
human TLR8 = molecular target: T1, human TLR8 (Homo sapiens, UniProt Q9NR97); assay: TLR8 inhibition reporter assay (HEK-Blue cells, SEAP reporter, R848 stimulation); conditions: HEK-Blue cells overexpressing human TLR8, SEAP reporter, R848 15.9 μM
T1 construct: host or cells: HEK-Blue cells
T1 sequence (Q9NR97 27-1041): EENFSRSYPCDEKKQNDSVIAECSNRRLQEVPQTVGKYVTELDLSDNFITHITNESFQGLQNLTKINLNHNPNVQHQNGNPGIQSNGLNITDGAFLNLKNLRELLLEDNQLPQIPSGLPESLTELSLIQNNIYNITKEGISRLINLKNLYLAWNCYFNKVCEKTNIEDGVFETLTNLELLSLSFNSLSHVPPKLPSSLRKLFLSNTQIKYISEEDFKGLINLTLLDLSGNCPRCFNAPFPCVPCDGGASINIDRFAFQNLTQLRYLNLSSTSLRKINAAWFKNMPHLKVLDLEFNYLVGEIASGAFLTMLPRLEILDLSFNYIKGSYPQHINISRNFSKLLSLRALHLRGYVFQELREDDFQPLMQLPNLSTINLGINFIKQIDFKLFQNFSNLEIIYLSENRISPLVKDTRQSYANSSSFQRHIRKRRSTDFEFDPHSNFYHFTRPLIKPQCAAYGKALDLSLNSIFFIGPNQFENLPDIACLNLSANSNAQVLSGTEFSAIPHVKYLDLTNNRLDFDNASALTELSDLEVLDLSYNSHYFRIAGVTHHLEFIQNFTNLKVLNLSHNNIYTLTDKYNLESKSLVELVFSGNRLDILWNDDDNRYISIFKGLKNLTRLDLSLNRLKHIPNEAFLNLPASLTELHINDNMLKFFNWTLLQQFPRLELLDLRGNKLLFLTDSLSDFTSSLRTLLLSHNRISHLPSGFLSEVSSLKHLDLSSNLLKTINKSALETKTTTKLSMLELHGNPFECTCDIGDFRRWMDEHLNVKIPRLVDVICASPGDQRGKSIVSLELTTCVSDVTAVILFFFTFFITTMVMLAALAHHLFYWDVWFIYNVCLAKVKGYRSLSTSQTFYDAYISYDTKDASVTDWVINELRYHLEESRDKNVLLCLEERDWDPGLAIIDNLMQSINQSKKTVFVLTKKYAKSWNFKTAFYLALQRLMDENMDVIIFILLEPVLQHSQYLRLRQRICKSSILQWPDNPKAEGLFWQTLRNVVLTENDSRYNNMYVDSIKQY
Summary of the method: (§1)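 Percent inhibition is derived from SEAP signal, scaled between agonist-plus-DMSO wells and wells given a known inhibitor. Test compounds (0.05 nM–50 μM) are pre-incubated 30 min at room temperature before agonist addition (TLR7: 7.5 μM gardiquimod; TLR8: 15.9 μM R848; TLR9: 5 nM ODN2006) and 22 h culture at 37 °C.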

human TLR7 = molecular target: T2, human TLR7 (Homo sapiens, UniProt Q9NYK1); assay: TLR7 inhibition reporter assay (HEK-Blue cells, SEAP reporter, gardiquimod stimulation); conditions: HEK-Blue cells overexpressing human TLR7, SEAP reporter, gardiquimod 7.5 μM
T2 construct: host or cells: HEK-Blue cells
T2 sequence (Q9NYK1 27-1049): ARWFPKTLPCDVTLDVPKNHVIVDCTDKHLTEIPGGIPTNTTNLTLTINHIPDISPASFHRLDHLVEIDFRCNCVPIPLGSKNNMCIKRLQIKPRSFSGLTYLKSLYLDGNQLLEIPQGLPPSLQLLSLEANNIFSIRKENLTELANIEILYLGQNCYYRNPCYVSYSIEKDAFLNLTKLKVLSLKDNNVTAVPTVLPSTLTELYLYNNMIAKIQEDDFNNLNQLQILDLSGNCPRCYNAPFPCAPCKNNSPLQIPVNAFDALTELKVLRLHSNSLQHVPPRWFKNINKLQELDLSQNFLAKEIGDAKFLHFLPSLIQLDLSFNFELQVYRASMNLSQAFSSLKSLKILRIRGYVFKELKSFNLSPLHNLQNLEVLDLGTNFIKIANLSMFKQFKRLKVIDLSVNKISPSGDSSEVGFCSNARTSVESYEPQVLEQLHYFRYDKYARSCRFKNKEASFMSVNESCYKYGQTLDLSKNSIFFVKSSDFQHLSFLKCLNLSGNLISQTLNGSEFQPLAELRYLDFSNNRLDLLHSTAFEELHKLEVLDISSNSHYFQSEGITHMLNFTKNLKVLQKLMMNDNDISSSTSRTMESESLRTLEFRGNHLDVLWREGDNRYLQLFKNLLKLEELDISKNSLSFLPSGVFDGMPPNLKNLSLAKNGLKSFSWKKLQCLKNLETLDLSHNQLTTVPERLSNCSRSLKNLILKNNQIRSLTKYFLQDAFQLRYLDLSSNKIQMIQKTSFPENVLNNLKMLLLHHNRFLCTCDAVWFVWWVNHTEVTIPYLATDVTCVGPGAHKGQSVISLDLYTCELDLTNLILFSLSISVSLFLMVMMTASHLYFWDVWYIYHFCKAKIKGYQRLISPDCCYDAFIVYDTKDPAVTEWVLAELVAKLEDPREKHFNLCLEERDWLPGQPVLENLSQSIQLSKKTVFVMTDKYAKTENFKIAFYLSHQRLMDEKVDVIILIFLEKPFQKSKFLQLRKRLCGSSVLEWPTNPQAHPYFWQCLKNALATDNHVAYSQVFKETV
Summary of the method: as §1

human TLR9 = molecular target: T3, human TLR9 (Homo sapiens, UniProt Q9NR96); assay: TLR9 inhibition reporter assay (HEK-Blue cells, SEAP reporter, ODN2006 stimulation); conditions: HEK-Blue cells overexpressing human TLR9, SEAP reporter, ODN2006 5 nM
T3 construct: host or cells: HEK-Blue cells
T3 sequence (Q9NR96 26-1032): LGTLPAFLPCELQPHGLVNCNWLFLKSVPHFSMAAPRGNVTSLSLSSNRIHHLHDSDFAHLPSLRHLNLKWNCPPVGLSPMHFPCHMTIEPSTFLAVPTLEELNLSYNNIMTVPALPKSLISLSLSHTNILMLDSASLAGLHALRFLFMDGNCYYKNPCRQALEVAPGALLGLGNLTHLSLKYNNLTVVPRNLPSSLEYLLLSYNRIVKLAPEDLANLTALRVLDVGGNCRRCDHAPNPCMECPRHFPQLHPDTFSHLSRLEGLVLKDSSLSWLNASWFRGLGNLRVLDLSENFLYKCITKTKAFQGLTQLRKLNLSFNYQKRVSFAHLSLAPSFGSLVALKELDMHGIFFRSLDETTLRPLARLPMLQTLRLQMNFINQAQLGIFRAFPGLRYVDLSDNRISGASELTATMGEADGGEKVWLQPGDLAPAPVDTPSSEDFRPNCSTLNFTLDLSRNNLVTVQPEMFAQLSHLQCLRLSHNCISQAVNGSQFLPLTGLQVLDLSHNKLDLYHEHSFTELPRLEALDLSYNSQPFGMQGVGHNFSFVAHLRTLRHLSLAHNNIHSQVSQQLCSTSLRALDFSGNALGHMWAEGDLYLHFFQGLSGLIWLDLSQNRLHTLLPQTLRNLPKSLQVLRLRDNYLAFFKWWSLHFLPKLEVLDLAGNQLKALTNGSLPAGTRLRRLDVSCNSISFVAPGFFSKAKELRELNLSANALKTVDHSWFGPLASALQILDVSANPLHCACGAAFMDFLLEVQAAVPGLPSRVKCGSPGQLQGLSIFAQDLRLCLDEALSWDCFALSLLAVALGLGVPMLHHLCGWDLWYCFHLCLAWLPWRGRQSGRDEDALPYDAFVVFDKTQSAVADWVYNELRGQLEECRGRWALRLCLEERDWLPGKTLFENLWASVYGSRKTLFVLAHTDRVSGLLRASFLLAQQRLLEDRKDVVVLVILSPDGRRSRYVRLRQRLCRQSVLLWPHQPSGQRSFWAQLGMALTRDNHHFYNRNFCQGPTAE
Summary of the method: as §1

| Structure (SMILES) | IC50 (human TLR8) [nM] | IC50 (human TLR7) [nM] | IC50 (human TLR9) [nM] |
| --- | --- | --- | --- |
| Cc1cc(-c2[nH]c3ccc([C@H]4C[C@H]4C(=O)NC4CCC5CNCC54)cc3c2C(C)C)ccn1 (stereo partly drawn) [Example 453] | 66 | 77 | 191 |
| Cc1cc(-c2[nH]c3ccc([C@H]4C[C@H]4C(=O)N4CC5CC4CN5)cc3c2C(C)C)ccn1 (stereo partly drawn) [Example 454] | 5.5 | 96 | 363 |
| Cc1cc(-c2[nH]c3ccc([C@H]4C[C@H]4C(=O)N4CC5CNCC5C4)cc3c2C(C)C)ccn1 (stereo partly drawn) [Example 455] | 16 | 188 | 326 |
| Cc1cc(-c2[nH]c3ccc([C@H]4C[C@H]4C(=O)NC4CCNCC4)cc3c2C(C)C)ccn1 [Example 456] | 56 | 124 | 224 |
| Cc1cc(-c2[nH]c3ccc([C@H]4C[C@H]4C(=O)NC4CCC5CNCC54)cc3c2C(C)C)ccn1 (stereo partly drawn) [Example 457] | 50 | 189 | 646 |
| Cc1cc(-c2[nH]c3ccc([C@@H]4C[C@H]4C(=O)NC4CCN(C(C)C)CC4)cc3c2C(C)C)ccn1 [Example 458] | 21 | 57 | 2270 |
| Cc1cc(-c2[nH]c3ccc([C@@H]4C[C@H]4C(=O)N(C)C4CC5CCN4CC5)cc3c2C(C)C)ccn1 (stereo partly drawn) [Example 459] | 10 | 19 | 174 |
| Cc1cc(-c2[nH]c3ccc([C@@H]4C[C@H]4C(=O)NC4CC5CCN4CC5)cc3c2C(C)C)ccn1 (stereo partly drawn) [Example 460] | 31 | 51 | 179 |
| Cc1cc(-c2[nH]c3ccc([C@@H]4C[C@H]4C(=O)NC4CC5CCN4CC5)cc3c2C(C)C)ccn1 (stereo partly drawn) [Example 461] | 30 | 86 | 467 |
| Cc1cc(-c2[nH]c3ccc([C@@H]4C[C@H]4C(=O)N(C)C4CCNCC4)cc3c2C(C)C)ccn1 [Example 462] | 27 | 25 | 116 |
| Cc1cc(-c2[nH]c3ccc([C@@H]4C[C@H]4C(=O)N(C)C4CC5CCN4CC5)cc3c2C(C)C)ccn1 (stereo partly drawn) [Example 463] | 15 | 35 | 406 |
